Experimental data taken from ChEMBL document CHEMBL2406956, “Discovery and optimisation of 1-hydroxyimino-3,3-diphenylpropanes, a new class of orally active GPBAR1 (TGR5) agonists” (Bioorg Med Chem Lett, 2013).

What was measured:
[1] = 1-octanol-aqueous buffer distribution coefficient, log D of the compound at 0.5 mM at pH 7.4 after 2 hrs by shake flask method; format: physicochemical
[2] = system: Plasma; assay: Plasma concentration in C57Bl/6 DIO mouse at 50 to 100 mg/kg, po; format: ADME, organism-based; parameters: dose 50-100 mg/kg, route oral; settings: in vivo
[3] = Half life in C57Bl/6 DIO mouse at 1 mg/kg, iv; format: ADME, organism-based; parameters: dose 1 mg/kg, route intravenous; settings: in vivo
[4] = Volume of distribution at steady state in C57Bl/6 DIO mouse at 1 mg/kg, iv; format: ADME, organism-based; parameters: dose 1 mg/kg, route intravenous; settings: in vivo, read-out: Vdss
[5] = Clearance in C57Bl/6 DIO mouse at 1 mg/kg, iv; format: ADME, organism-based; parameters: dose 1 mg/kg, route intravenous; settings: in vivo
[6] = Oral bioavailability in C57Bl/6 DIO mouse at 23 mg/kg; format: ADME, organism-based; settings: in vivo
[7] = Oral bioavailability in C57Bl/6 DIO mouse at 30 mg/kg; format: ADME, organism-based; settings: in vivo
[8] = Cmax in C57Bl/6 DIO mouse at 30 mg/kg, po; format: ADME, organism-based; parameters: dose 30 mg/kg, route oral; settings: in vivo
[9] = Cmax in C57Bl/6 DIO mouse at 22 mg/kg, po; format: ADME, organism-based; parameters: dose 22 mg/kg, route oral; settings: in vivo
[10] = Oral bioavailability in C57Bl/6 DIO mouse at 22 mg/kg; format: ADME, organism-based; settings: in vivo
[11] = Stability of the compound in aqueous solution assessed as recovery at pH 1 to 10 after 2 hrs; format: physicochemical; settings: read-out: Drug recovery
[12] = Oral bioavailability in C57Bl/6 DIO mouse at 49 mg/kg; format: ADME, organism-based; settings: in vivo

| Structure (SMILES) | logD at 2 h, 500 µM [1] | half-life [3] | Vd [4] | clearance [5] | also measured |
| --- | --- | --- | --- | --- | --- |
| Cc1ccccc1[C@@H](C/C(=N\O)c1ccc(=O)n(C)c1)c1ccc(S(C)(=O)=O)cc1 | 1.9 | – | – | – | – |
| Cc1cc(/C(CC(c2ccc(Br)cc2)c2ccccc2C)=N/O)ccn1 (stereo not given) | > 4 | – | – | – | – |
| Cc1cc(/C(C[C@H](c2ccc(N3CCC(C(=O)O)CC3)cc2)c2ccccc2C)=N/O)ccn1 | 1.5 | 1.7 h | 0.4 L/kg | 5 mL/min/kg | bioavailability [7]: 100%; Cmax [8]: 41000 ng/mL |
| Cc1ccccc1[C@@H](C/C(=N\O)c1ccc(=O)n(C)c1)c1ccc(-c2ccc(C(=O)O)cc2)cc1 | 1.5 | – | – | – | – |
| Cc1cc(/C(C[C@@H](c2ccc(-c3ccc(C(=O)O)cc3)cc2)c2ccccc2C)=N/O)ccn1 | 2.7 | – | – | – | – |
| Cc1ccccc1[C@H](C/C(=N\O)c1ccc(=O)n(C)c1)c1ccc(S(C)(=O)=O)cc1 | 1.7 | 2.2 h | 3.3 L/kg | 67 mL/min/kg | Cmax [9]: 870 ng/mL; bioavailability [10]: 29% |

Further lines, with some results ahead:

| logD at 2 h, 500 µM [1] | half-life [3] | Vd [4] | clearance [5] | Structure (SMILES) | also measured |
| --- | --- | --- | --- | --- | --- |
| 2.7 | 0.3 h | 0.5 L/kg | 15 mL/min/kg | Cc1cc(/C(C[C@H](c2ccc(-c3ccc(C(=O)O)cc3)cc2)c2ccccc2C)=N/O)ccn1 | Cp [2]: 31500 ng/mL; bioavailability [6]: 80% |
| 1.6 | – | – | – | Cc1cc(/C(C[C@@H](c2ccc(N3CCC(C(=O)O)CC3)cc2)c2ccccc2C)=N/O)ccn1 | – |
| 3.4 | – | – | – | CN(C)c1ccc(C(C/C(=N\O)c2ccncc2)c2ccccc2)cc1 (stereo not given) | remaining at 2 h [11]: > 90% |
| 1.3 | 0.7 h | 0.5 L/kg | 5 mL/min/kg | Cc1ccccc1[C@H](C/C(=N\O)c1ccc(=O)n(C)c1)c1ccc(-c2ccc(C(=O)O)cc2)cc1 | bioavailability [12]: 67% |
